Common to all, as to format: in vivo
Assay [1] deals with Spodoptera littoralis, Heliothis virescens, Plutella xylostella, Diabrotica balteata, Thrips tabaci, Tetranychus urticae. The assay is described as follows: Pesticidal tests, same protocols (all six pests taken together). To be noted: same protocols as b207 (200 ppm), under the test conditions. From the text:
(§1) Cotton leaf discs were placed on agar in a 24-well microtiter plate and sprayed with test solutions at an application rate of 200 ppm. After drying, the leaf discs were infested with 5 to L1 larvae. The samples were checked for mortality, feeding behavior, and growth regulation 3 days after treatment (DAT). The following compounds gave at least 80% control of Spodoptera littoralis: A1, A2, A3, A4, A6, A9, A10, A11, A12, A13, A14, A15, A16, A19, A20, A22, A23, A25, A26, A27, B1, B2, B3, B5, B6, B7, B8, B9, B11, B12, B13, B15, B16, B18, B19, B20, B21, B22, B24, B26, B27, B28, C1, C2, C3, C4, C5, C6, C7, C8, C9, C10, C12, C13, C16, C19, C20, C21, C22, C23, D1, D2, D3, D4, D5, D6, D7, D8, D9, D10, D11, D12, D13, D14, D15, D16, D17, D18, D19, D20, D21, D22, D23, D24. Heliothis virescens (Tobacco Budworm): Eggs (0-24 h old) were placed in 24-well microtiter plate on artificial diet and treated with test solutions at an application rate of 200 ppm (concentration in well 18 ppm) by pipetting. After an incubation period of 4 days, samples were checked for egg mortality, larval mortality, and growth regulation. The following compounds gave at least 80% control of Heliothis virescens: A1, A2, A3, A4, A13, A15, A17, A19, A20, A22, A23, A25, A26, A28, B1, B2, B3, B5, B6, B7, B9, B11, B13, B15, B18, B19, B20, B21, B25, B26, B27, B28, C1, C2, C3, C4, C5, C6, C7, C8, C9, C10, C12, C14, C16, C17, C19, C20, C21, C22, D1, D2, D3, D4, D5, D6, D7, D8, D9, D10, D11, D12, D13, D14, D15, D16, D17, D18, D19, D20, D21, D22, D23, E1, E2, E3, E4, E5. Plutella xylostella (Diamond Back Moth): 24-well microtiter plate (MTP) with artificial diet was treated with test solutions at an application rate of 200 ppm (concentration in well 18 ppm) by pipetting. After drying, the MTP's were infested with L2 larvae (7-12 per well). After an incubation period of 6 days, samples were checked for larval mortality and growth regulation. The following compounds gave at least 80% control of Plutella xylostella: A1, A3, A4, A10, All, A15, A19, A23, A25, B1, B2, B3, B5, B6, B7, B8, B9, B11, B13, B15, B18, B19, B20, B21, B26, B27, B28, C1, C2, C3, C4, C6, C7, C8, C9, C12, C16, C19, C20, C22, D1, D2, D3, D4, D5, D6, D7, D8, D9, D10, D12, D13, D14, D15, D16, D17, D18, D19, D20, D21, D22, D23, E1, E3, E5. Diabrotica balteata (Corn Root Worm): A 24-well microtiter plate (MTP) with artificial diet was treated with test solutions at an application rate of 200 ppm (concentration in well 18 ppm) by pipetting. After drying, the MTP's were infested with L2 larvae (6-10 per well). After an incubation period of 5 days, samples were checked for larval mortality and growth regulation. The following compounds gave at least 80% control of Diabrotica balteata: A2, A3, A4, A9, A11, A12, A13, A14, A15, A17, A19, A21, A22, A23, A24, A25, A26, B1, B2, B3, B6, B7, B8, B11, B13, B14, B15, B18, B19, B20, B21, B22, B26, B28, C1, C2, C3, C4, C5, C6, C7, C8, C9, C10, C12, C14, C15, C16, C19, C20, C21, C22, C23, C26, D1, D2, D4, D5, D6, D7, D8, D9, D10, D12, D14, D15, D16, D17, D18, D19, D20, D21, D22, D23, E2, E3, E5. Thrips tabaci (Onion Thrips): Sunflower leaf discs were placed on agar in a 24-well microtiter plate and sprayed with test solutions at an application rate of 200 ppm. After drying, the leaf discs were infested with an […] population of mixed ages. After an incubation period of 7 days, samples were checked for mortality. The following compounds gave at least 80% control of Thrips tabaci: B1, B7, B11, B15, B18, B19, B28, D1, D2, D3, D4, D5, D6, D7, D8, D9, D10, D12, D16, D18, D19, D20, D21, D23. Tetranychus urticae (Two-Spotted Spider Mite): Bean leaf discs on agar in 24-well microtiter plates were sprayed with test solutions at an application rate of 200 ppm. After drying, the leaf discs are infested with mite populations of mixed ages. 8 days later, discs are checked for egg mortality, larval mortality, and adult mortality. […]

In assay [2] the test system is Spodoptera littoralis (Egyptian Cotton Leafworm). The assay is described as follows: Spodoptera littoralis cotton leaf disc spray test. As to conditions: foliar, 72 h, 200 ppm spray on cotton leaf discs, L1 larvae, mortality, feeding behavior, growth regulation 3 DAT.
Text: as §1

Assay [3] relates to Diabrotica balteata (Corn Root Worm). Put plainly: Diabrotica balteata larvae test on artificial diet. To be noted: 120 h, 200 ppm (concentration in well 18 ppm), L2 larvae, larval mortality and growth regulation after 5 days.
Text: as §1

For assay [4], the system named is Heliothis virescens (Tobacco Budworm). The assay is described as follows: Heliothis virescens egg test on artificial diet. To be noted: 96 h, 200 ppm (concentration in well 18 ppm), eggs 0-24 h old on artificial diet, egg mortality, larval mortality, growth regulation after 4 days.
Text: as §1

Assay [5] relates to Plutella xylostella (Diamond Back Moth). The assay is described as follows: Plutella xylostella larvae test on artificial diet. As to conditions: 144 h, 200 ppm (concentration in well 18 ppm), L2 larvae, larval mortality and growth regulation after 6 days.
Text: as §1

With `COCC(=O)Nc1cccc(C2=NOC(c3cc(Cl)cc(Cl)c3)(C(F)(F)F)C2)c1` (centres unmarked) [A7], in assay [1], the “effect on mortality, feeding behavior, or growth regulation” value is given as “little or no effect”.

Consider `O=C(Nc1cc(C2=NOC(c3cc(Cl)cc(Cl)c3)(C(F)(F)F)C2)ccc1F)c1ccc(F)cc1` (centres unmarked) [C20], for which the pest or weed control at 200 ppm in assay [2], in assay [3], in assay [4] and in assay [5] was no less than 80% throughout.

Take `O=C(Nc1cccc(C2=NOC(c3cc(Cl)cc(Cl)c3)(C(F)(F)F)C2)c1F)c1cccc(F)c1F` (centres unmarked) [B21]: the pest or weed control at 200 ppm in assay [2], in assay [3], in assay [4] and in assay [5] was no less than 80% in each case.

For the compound `N#Cc1ccc(C(=O)Nc2cc(C3=NOC(c4cc(Cl)cc(Cl)c4)(C(F)(F)F)C3)ccc2F)cc1` (centres unmarked) [C1], the pest or weed control at 200 ppm in assay [2], in assay [3], in assay [4] and in assay [5] was no less than 80% in each case.

For `N#Cc1ccc(C2=NOC(c3cc(Cl)cc(Cl)c3)(C(F)(F)F)C2)cc1NC(=O)c1cccc(F)c1F` (centres unmarked) [D22], the pest or weed control at 200 ppm in assay [2], in assay [3], in assay [4] and in assay [5] was no less than 80% throughout.

For the compound `CSc1ccccc1C(=O)Nc1cccc(C2=NOC(c3cc(Cl)cc(Cl)c3)(C(F)(F)F)C2)c1F` (centres unmarked) [B27], the pest or weed control at 200 ppm in assay [2], in assay [4] and in assay [5] was no less than 80% each time.

On to `N#Cc1ccc(C2=NOC(c3cc(Cl)cc(Cl)c3)(C(F)(F)F)C2)cc1NC(=O)c1ccco1` (centres unmarked) [D13], for which the pest or weed control at 200 ppm in assay [2], in assay [4] and in assay [5] was no less than 80% each time.

Regarding `Cc1ccccc1C(=O)Nc1cc(C2=NOC(c3cc(Cl)cc(Cl)c3)(C(F)(F)F)C2)ccc1F` (centres unmarked) [C6], the pest or weed control at 200 ppm in assay [2], in assay [3], in assay [4] and in assay [5] was no less than 80% throughout.

In the case of `O=C(Nc1cccc(C2=NOC(c3cc(Cl)cc(Cl)c3)(C(F)(F)F)C2)c1F)c1ccccc1` (centres unmarked) [B16], the pest or weed control at 200 ppm in assay [2] is no less than 80%.

For the compound `O=C(Nc1cccc(C2=NOC(c3cc(Cl)cc(Cl)c3)(C(F)(F)F)C2)c1F)c1ccc(F)cc1F` (centres unmarked) [B22], the pest or weed control at 200 ppm in assay [2] and in assay [3] was no less than 80% each time.

As to `O=C(Nc1cc(C2=NOC(c3cc(Cl)cc(Cl)c3)(C(F)(F)F)C2)ccc1F)c1ccccc1F` (centres unmarked) [C5], the pest or weed control at 200 ppm in assay [2], in assay [3] and in assay [4] was no less than 80% throughout.

Turning to `O=C(Nc1cc(C2=NOC(c3cc(Cl)cc(Cl)c3)(C(F)(F)F)C2)ccc1F)c1ccc([N+](=O)[O-])cc1` (centres unmarked) [C8], the pest or weed control at 200 ppm in assay [2], in assay [3], in assay [4] and in assay [5] was no less than 80% throughout.

Take `CCCCC(=O)Nc1cccc(C2=NOC(c3cc(Cl)cc(Cl)c3)(C(F)(F)F)C2)c1` (centres unmarked) [A6, pentanoic acid {3-[5-(3,5-dichloro-phenyl)-5-trifluoromethyl-4,5-dihydro-isoxazol-3-yl]-phenyl}-amide]: the pest or weed control at 200 ppm in assay [2] was no less than 80%.

For the compound `O=C(Nc1cc(C2=NOC(c3cc(Cl)cc(Cl)c3)(C(F)(F)F)C2)ccc1F)c1ccccc1Cl` (centres unmarked) [C7], the pest or weed control at 200 ppm in assay [2], in assay [3], in assay [4] and in assay [5] was no less than 80% throughout.

`O=C(Nc1cccc(C2=NOC(c3cc(Cl)cc(Cl)c3)(C(F)(F)F)C2)c1F)c1ccccc1Cl` (centres unmarked) [B3]: the pest or weed control at 200 ppm in assay [2], in assay [3], in assay [4] and in assay [5] was no less than 80% throughout.

In assay [4], `O=C(Nc1cccc(C2=NOC(c3cc(Cl)cc(Cl)c3)(C(F)(F)F)C2)c1F)c1ccccn1` (centres unmarked) [B25] displayed a pest or weed control at 200 ppm of no less than 80%.

In the case of `O=C(Nc1cc(C2=NOC(c3cc(Cl)cc(Cl)c3)(C(F)(F)F)C2)ccc1F)c1cccc(F)c1F` (centres unmarked) [C23], the pest or weed control at 200 ppm in assay [2] and in assay [3] was no less than 80% throughout.

On to `Cc1ccc(C(=O)Nc2cccc(C3=NOC(c4cc(Cl)cc(Cl)c4)(C(F)(F)F)C3)c2F)cc1` (centres unmarked) [B6], for which the pest or weed control at 200 ppm in assay [2], in assay [3], in assay [4] and in assay [5] was no less than 80% in each case.

As to `Cc1cc(NC(=O)c2ccc(C#N)cc2)cc(C2=NOC(c3cc(Cl)cc(Cl)c3)(C(F)(F)F)C2)c1` (centres unmarked) [E1], the pest or weed control at 200 ppm in assay [4] and in assay [5] was no less than 80% throughout.

As to `O=C(Nc1cc(C2=NOC(c3cc(Cl)cc(Cl)c3)(C(F)(F)F)C2)ccc1F)c1ccco1` (centres unmarked) [C13], in assay [2], the pest or weed control at 200 ppm is no less than 80%.

`Cc1ccccc1C(=O)Nc1cccc(C2=NOC(c3cc(Cl)cc(Cl)c3)(C(F)(F)F)C2)c1F` (centres unmarked) [B2]: the pest or weed control at 200 ppm in assay [2], in assay [3], in assay [4] and in assay [5] was no less than 80% in each case.

Consider `O=C(Nc1cc(C2=NOC(c3cc(Cl)cc(Cl)c3)(C(F)(F)F)C2)ccc1F)c1ccccc1` (centres unmarked) [C19], for which the pest or weed control at 200 ppm in assay [2], in assay [3], in assay [4] and in assay [5] was no less than 80% each time.

For the compound `O=C(Nc1cccc(C2=NOC(c3cc(Cl)cc(Cl)c3)(C(F)(F)F)C2)c1F)c1cccnc1` (centres unmarked) [B26], the pest or weed control at 200 ppm in assay [2], in assay [3], in assay [4] and in assay [5] was no less than 80% in each case.

Source of the values: patent publication US8410145B2, “Insecticidal compounds” (Syngenta Crop Protection LLC, priority 2007, dated 2013).
